Test results as given in patent US12350250B2, “Aggrelytes for treating ocular conditions” (The Regents of the University of Colorado, a Body Corporate, priority 2022, dated 2025).

Columns and labels:
[1] = target: T1, human lens cortical proteins (Homo sapiens, UniProt P02489); assay: Identification of AcK sites in proteins of Aggrelyte-2-treated lens (AcK peptide enrichment, LC-MS/MS); design: key to Fold Change (Aggrelyte-2 vs Control) [Total Sum]: *: were not detected in the control lens but were prominent in the Aggrelyte-2-treated lens; conditions: for Aggrelyte-2 treated Area: lens of donor
T1 construct: from tissue; host or cells: cortex of a human lens from a donor, treated ex vivo
T1 sequence (P02489 1-173): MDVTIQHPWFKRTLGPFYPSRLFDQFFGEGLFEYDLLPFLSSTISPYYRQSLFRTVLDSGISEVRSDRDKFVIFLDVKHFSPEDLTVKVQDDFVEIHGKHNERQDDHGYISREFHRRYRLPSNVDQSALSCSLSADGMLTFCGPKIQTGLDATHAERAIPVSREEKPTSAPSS
Experimental: (§1) The AcK modification sites and relative levels at those sites in the Aggrelyte-2-treated and untreated (control) human lens cortical proteins were evaluated in the lens (from a donor) that had the largest overall AcK differential measured by Western blot analysis (blot not shown; densitometric summary in FIG. 14B) and LC-MS/MS (FIG. 15B). Each sample (315 μg) was spiked with 200 ng of acetylated bovine serum albumin (AcBSA) protein standard, reduced, alkylated, and digested with trypsin using a urea-based method and then desalted using a C18 resin before being lyophilized. The samples were then immunoprecipitated according to the manufacturer's protocol for the PTMScan Acetyl-Lysine Motif Kit No. 13416 (Cell Signaling Technology). Peptides were purified with a Pierce C18 spin column (Thermo Fisher Scientific) and dried in a Speed Vac concentrator at 45° C. The peptides were resuspended in 3% acetonitrile in 0.1% formic acid for MS analysis.
(§2) The enriched AcK-bearing peptides were loaded onto a 2 cm PepMap 100 nanoviper trapping column and chromatographically resolved with a 0.075×250 mm, […] Acclaim PepMap RSLC reversed-phase nanocolumn (Thermo Scientific) using a 1290 Infinity II LC system equipped with a nanoadapter (Agilent). The mobile phase consisted of water+0.1% formic acid (A) and 90% aqueous acetonitrile+0.1% formic acid (B). Samples were loaded onto the trapping column at 3.0 μL/min for 3.5 min under initial conditions before being chromatographically separated at an effective flow rate of 330 nL/min using a gradient of 3-8% B over 3 min, 8-30% B over 33 min, and 30-40% B over 4 min at 40° C. The gradient was followed by a column wash at 75% B for 5 min. Data were collected using a 6550 Q-TOF equipped with a nanosource (Agilent Technologies) operated using intensity-dependent CID MS/MS to generate peptide identifications. MS/MS data were collected in positive ion polarity over a mass range of 290-1700 m/z at a scan rate of 8 spectra/second for MS scans and a mass range of 50-1700 m/z at a scan rate of 3 spectra/second for MS/MS scans. All charge states, except singly charged species, were allowed during MS/MS acquisition.
(§3) Tandem mass spectra were extracted, searched, and summarized using PEAKS X+ Studio 10.5 software (Bioinformatics Solutions Inc., Waterloo, Ontario). The spectra were searched against the UniProtKB SwissProt [2022_02] Homo sapiens database, allowing for up to three missed semitryptic cleavages with fixed carbamidomethylation of cysteine and a maximum of four variable modifications of deamidation of asparagine and glutamine, oxidation of methionine and/or acetylation of lysine per peptide. The allowed monoisotopic peptide mass tolerance was ±15.0 ppm, and the MS/MS tolerance was ±0.05 da. A false discovery rate (FDR) filter of 0.5% was used corresponding to a −10 log P score ≥19.3.
(§4) The MS-only level data from the LC-MS/MS analyses were extracted and aligned using Profinder V.B.10.01 software (Agilent Technologies). Retention times, neutral masses, and chemical formulas generated from identified acetyl peptides were used to perform batch-targeted feature extraction. Data were extracted with an ion count threshold of two or more ions, 5000 counts, and a score threshold of 70. The score was based on the quality of the mass accuracy, isotope abundances, and isotope spacing of compounds based on the chemical formula of the target peptides within a specified retention time window. Using the peptide isotope model, charge states 2-6 were allowed with H^+ and Na^+ charge carriers. The retention time window and mass window alignment tolerances were set to 0.4 min and 10 ppm, respectively. The extracted peptide peak areas were then used to determine a fold change value in the treated vs. control samples to help identify potential AcK sites that may be affected by aggrelyte-2. Due to a lack of statistical power, a three-fold change filter was used as a sufficient cutoff to identify potential AcK sites of interest. […]

[2] = target: T2, human lens cortical proteins (Homo sapiens, UniProt P32320); assay: as above; design: key to Fold Change (Aggrelyte-2 vs Control) [Total Sum]: *: were not detected in the control lens but were prominent in the Aggrelyte-2-treated lens; conditions: Cytidine deaminase K51
T2 construct: from tissue; host or cells: cortex of a human lens from a donor, treated ex vivo
Experimental: as §1, §2, §3, §4

[3] = test system: human lens cortical proteins; assay: as above; design: key to Fold Change (Aggrelyte-2 vs Control) [Total Sum]: *: were not detected in the control lens but were prominent in the Aggrelyte-2-treated lens
Experimental: as §1, §2, §3, §4

mouse lenses = assay: Stiffness of ex vivo mouse lenses (Example 18); design: species or system mouse (C57BL/6J); conditions: 1 mM, 24 hours, ex vivo mouse lenses (3-6 months old); not significant
Experimental: In this example, the lenses were dissected from the eyes of mice (C57BL/6J, 3-6 months old, Jackson Laboratories, Stock No. 000664) by a posterior approach and incubated without (“Control”) or with Aggrelyte-2 or Aggrelyte-2A (1 mM) for 24 hours in serum-free and phenol-red-free MEM (297 mOsm) at 37° C. Lens stiffness was measured as in Example 10, except that the load was applied at 50 mg increments.

human lenses = assay: Stiffness of ex vivo human lenses (Example 22); conditions: 250 μM, 48 hours, ex vivo human lenses (47-67 years)
Experimental: To test the effects of Aggrelyte-2 and Aggrelyte-2A on human lenses (age: 47-67 years), lenses were incubated in media containing freshly dissolved aggrelyte (250 μM) for 48 hours, with aggrelyte replacement after 24 hours. One lens from each donor pair was treated with aggrelyte, while the other was used as the control. After incubation, lens stiffness was measured, as described above in Example 20.

T2 sequence (P32320 whole entry): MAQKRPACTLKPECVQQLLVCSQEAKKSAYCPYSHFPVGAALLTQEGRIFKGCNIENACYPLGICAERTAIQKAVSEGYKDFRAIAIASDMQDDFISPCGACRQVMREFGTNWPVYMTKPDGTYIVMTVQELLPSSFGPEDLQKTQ

**Q.** How did the “Fold Change (Aggrelyte-2 vs Control) [Total Sum]” value (“Fold Change” below) ([1]; AlphaA-crystallin K70) turn out when COC(=O)[C@H](CSC(C)=O)NC(C)=O [Aggrelyte-2, N,S-diacetyl-L-cysteine methyl ester] was run?
**A.** 3.13

**Q.** And the “Aggrelyte-2 treated Area” value ([1]; AlphaA-crystallin K70)?
**A.** 8.80E+06

**Q.** What about the “Fold Change” value ([1]; AlphaA-crystallin K88) of the same compound?
**A.** *

**Q.** And the “Aggrelyte-2 treated Area” value ([1]; AlphaA-crystallin K88)?
**A.** 1.11E+05

**Q.** And the “Fold Change” value [2]?
**A.** 3.66

**Q.** And the “Aggrelyte-2 treated Area” value ([2]; lens of donor)?
**A.** 7.26E+05

**Q.** And the “Aggrelyte-2 treated Area” value ([3]; Acetylated Bovine Serum Albumin Standard Spike at 200 ng in each sample (workup control), 17 peptides summed)?
**A.** 3.68E+07

**Q.** What about the “Fold Change” value ([3]; Actin cytoplasmic 1 K61) of the same compound?
**A.** 3.48

**Q.** And the “Aggrelyte-2 treated Area” value ([3]; Actin cytoplasmic 1 K61, lens of donor)?
**A.** 7.63E+04

**Q.** And the “Fold Change” value ([3]; Actin cytoplasmic 1 K213)?
**A.** 3.53

**Q.** What about the “Aggrelyte-2 treated Area” value ([3]; Actin cytoplasmic 1 K213, lens of donor) of the same compound?
**A.** 1.03E+05

**Q.** And the “Fold Change” value ([3]; AlphaB-crystallin K72)?
**A.** 3.56

**Q.** What about the “Aggrelyte-2 treated Area” value ([3]; AlphaB-crystallin K72, lens of donor) of the same compound?
**A.** 6.31E+05

**Q.** What about the “Fold Change” value ([3]; AlphaB-crystallin K174) of the same compound?
**A.** 7.41

**Q.** And the “Aggrelyte-2 treated Area” value ([3]; AlphaB-crystallin K174, lens of donor)?
**A.** 5.84E+06

**Q.** What about the “Fold Change” value ([3]; BetaB2-crystallin K42) of the same compound?
**A.** 25.80

**Q.** What about the “Aggrelyte-2 treated Area” value ([3]; BetaB2-crystallin K42, lens of donor) of the same compound?
**A.** 6.98E+05

**Q.** What about the “Fold Change” value ([3]; Filensin K360) of the same compound?
**A.** 3.94

**Q.** What about the “Aggrelyte-2 treated Area” value ([3]; Filensin K360, lens of donor) of the same compound?
**A.** 1.16E+05

**Q.** And the “Fold Change” value ([3]; Glyceraldehyde-3-phosphate dehydrogenase K263)?
**A.** 3.18

**Q.** And the “Aggrelyte-2 treated Area” value ([3]; Glyceraldehyde-3-phosphate dehydrogenase K263, lens of donor)?
**A.** 1.04E+05

**Q.** What about the “Fold Change” value ([3]; Peroxiredoxin-6 K56) of the same compound?
**A.** 3.26

**Q.** What about the “Aggrelyte-2 treated Area” value ([3]; Peroxiredoxin-6 K56, lens of donor) of the same compound?
**A.** 5.83E+05

**Q.** And the “Fold Change” value ([3]; Phakinin K400)?
**A.** 14.48

**Q.** And the “Aggrelyte-2 treated Area” value ([3]; Phakinin K400, lens of donor)?
**A.** 2.21E+05

**Q.** What about the “Fold Change” value ([3]; Retinal dehydrogenase 1 K495) of the same compound?
**A.** 9.12

**Q.** What about the “Aggrelyte-2 treated Area” value ([3]; Retinal dehydrogenase 1 K495, lens of donor) of the same compound?
**A.** 9.11E+04

**Q.** And the “reduction of lens stiffness” value (mouse lenses)?
**A.** approximately 20%

**Q.** And the “effect on lens stiffness” value (human lenses)?
**A.** no effect on stiffness
